Data published in patent US20260297081A1, “COMPOUNDS AND METHODS OF TREATING CANCERS” (Cullgen Inc., priority 2023, published 2026).

Biological target: CDK4 (Homo sapiens, UniProt P11802+Q16531)
Assay: CDK4 percentage degradation in Calu-1 cells (Table 6)
Type: cell-based
Parameters: Cells that express cyclin D1-3 and CDK4/6 proteins were treated with heterobifunctional compounds; endogenous in cells; host or cells: Calu-1
Conditions: 16 hours; for inhibition at 0.04 µM: 40 nM; for inhibition at 0.2 µM: 200 nM
Summary of the method: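 Percentage degradation of Cyclin D1 and CDK4 derived from densitometry of ECL Western blots on lysates of Calu-1 cells. Treatment was 16 h with compound at either 40 nM or 200 nM.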

Sequence of CDK4 (P11802 2-303 limits assumed): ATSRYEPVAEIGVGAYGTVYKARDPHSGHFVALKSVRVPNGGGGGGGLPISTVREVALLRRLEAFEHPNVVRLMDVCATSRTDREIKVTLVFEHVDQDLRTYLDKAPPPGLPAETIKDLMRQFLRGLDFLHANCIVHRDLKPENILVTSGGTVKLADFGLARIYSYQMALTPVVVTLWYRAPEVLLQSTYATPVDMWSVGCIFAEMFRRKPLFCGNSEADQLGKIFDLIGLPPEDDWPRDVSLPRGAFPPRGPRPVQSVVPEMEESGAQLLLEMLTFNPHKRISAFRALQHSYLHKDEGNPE
Sequence of CDK4 (P24385 whole entry partner): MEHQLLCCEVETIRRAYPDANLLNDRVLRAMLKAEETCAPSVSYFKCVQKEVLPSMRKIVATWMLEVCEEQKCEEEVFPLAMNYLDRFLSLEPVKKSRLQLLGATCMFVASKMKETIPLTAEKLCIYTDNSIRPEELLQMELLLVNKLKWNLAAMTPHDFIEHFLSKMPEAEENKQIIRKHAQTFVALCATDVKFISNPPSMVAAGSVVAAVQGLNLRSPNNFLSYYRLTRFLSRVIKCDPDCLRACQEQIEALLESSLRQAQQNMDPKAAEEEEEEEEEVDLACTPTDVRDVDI
Sequence of CDK4 (Q16531 2-1140 limits assumed): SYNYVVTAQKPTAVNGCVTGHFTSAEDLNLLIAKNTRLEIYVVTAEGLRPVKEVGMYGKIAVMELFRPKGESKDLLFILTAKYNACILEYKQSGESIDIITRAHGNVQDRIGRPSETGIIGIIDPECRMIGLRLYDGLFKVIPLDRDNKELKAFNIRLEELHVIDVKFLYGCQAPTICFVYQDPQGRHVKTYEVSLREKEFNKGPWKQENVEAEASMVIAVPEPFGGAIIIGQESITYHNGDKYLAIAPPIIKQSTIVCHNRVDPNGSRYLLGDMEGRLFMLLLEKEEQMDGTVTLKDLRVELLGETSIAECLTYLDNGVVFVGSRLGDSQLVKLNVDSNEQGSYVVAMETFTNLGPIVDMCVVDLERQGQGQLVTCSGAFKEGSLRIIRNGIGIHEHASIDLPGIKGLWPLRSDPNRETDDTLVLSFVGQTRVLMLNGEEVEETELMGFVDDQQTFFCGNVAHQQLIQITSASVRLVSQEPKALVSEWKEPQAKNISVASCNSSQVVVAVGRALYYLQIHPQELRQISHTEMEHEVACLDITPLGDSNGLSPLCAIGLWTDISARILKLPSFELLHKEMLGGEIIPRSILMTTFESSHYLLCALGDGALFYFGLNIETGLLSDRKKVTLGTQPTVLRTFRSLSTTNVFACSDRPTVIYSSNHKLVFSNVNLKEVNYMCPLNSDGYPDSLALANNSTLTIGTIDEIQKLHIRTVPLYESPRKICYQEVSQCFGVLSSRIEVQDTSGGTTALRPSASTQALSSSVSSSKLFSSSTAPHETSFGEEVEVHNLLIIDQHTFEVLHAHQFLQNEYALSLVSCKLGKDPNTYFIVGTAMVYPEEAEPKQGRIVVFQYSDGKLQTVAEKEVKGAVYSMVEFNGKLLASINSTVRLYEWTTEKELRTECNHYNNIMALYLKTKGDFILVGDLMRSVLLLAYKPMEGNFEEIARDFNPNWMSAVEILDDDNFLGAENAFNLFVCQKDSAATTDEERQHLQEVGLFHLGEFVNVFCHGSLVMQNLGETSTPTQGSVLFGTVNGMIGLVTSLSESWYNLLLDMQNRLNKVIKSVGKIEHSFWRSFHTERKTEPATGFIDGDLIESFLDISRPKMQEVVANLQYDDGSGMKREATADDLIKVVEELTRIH

SMILES	inhibition at 0.04 µM [%]	inhibition at 0.2 µM [%]
CNc1ccc(C(=O)Nc2cn(C)c(C(C)C)n2)c(NC2CC3(CC(NC(=O)CN4CCN(c5ccc(Nc6ncc7c(C)c(C(C)=O)c(=O)n(C8CCCC8)c7n6)nc5)CC4)C3)C2)n1 (stereo not drawn) [CPD-195, 2-((6-(2-(4-(6-((6-acetyl-8-cyclopentyl-5-methyl-7-oxo-7,8-dihydropyrido[2,3-d]pyrimidin-2-yl)amino)pyridin-3-yl)piperazin-1-yl)acetamido)spiro[3.3]heptan-2-yl)amino)-N-(2-isopropyl-1-methyl-1H-imidazol-4-yl)-6-(methylamino)nicotinamide]	< 30	50 to 80
CNc1ccc(C(=O)Nc2cccc(C)n2)c(NC2CC(NC(=O)CN3CCN(c4ccc(Nc5ncc6c(C)c(C(C)=O)c(=O)n(C7CCCC7)c6n5)nc4)CC3)C2)n1 (stereo not drawn) [CPD-196, 2-((3-(2-(4-(6-((6-acetyl-8-cyclopentyl-5-methyl-7-oxo-7,8-dihydropyrido[2,3-d]pyrimidin-2-yl)amino)pyridin-3-yl)piperazin-1-yl)acetamido)cyclobutyl)amino)-6-(methylamino)-N-(6-methylpyridin-2-yl)nicotinamide]	< 30	30 to 50
CCc1ccc(C(=O)Nc2cc(C)n(C)n2)c(NC2CC(CNC(=O)CN3CCN(c4ccc(Nc5ncc6c(C)c(C(C)=O)c(=O)n(C7CCCC7)c6n5)nc4)CC3)C2)n1 (stereo not drawn) [CPD-210, 2-((3-((2-(4-(6-((6-acetyl-8-cyclopentyl-5-methyl-7-oxo-7,8-dihydropyrido[2,3-d]pyrimidin-2-yl)amino)pyridin-3-yl)piperazin-1-yl)acetamido)methyl)cyclobutyl)amino)-N-(1,5-dimethyl-1H-pyrazol-3-yl)-6-ethylnicotinamide]	30 to 50	50 to 80
CNc1ccc(C(=O)Nc2ccc(N(C)C)nn2)c(NC2CN(C(=O)CCCN3CCN(c4ccc(Nc5ncc6c(C)c(C(C)=O)c(=O)n(C7CCCC7)c6n5)nc4)CC3)C2)n1 [CPD-211, 2-((1-(4-(4-(6-((6-acetyl-8-cyclopentyl-5-methyl-7-oxo-7,8-dihydropyrido[2,3-d]pyrimidin-2-yl)amino)pyridin-3-yl)piperazin-1-yl)butanoyl)azetidin-3-yl)amino)-N-(6-(dimethylamino)pyridazin-3-yl)-6-(methylamino)nicotinamide]	30 to 50	30 to 50
CC(=O)c1c(C)c2cnc(Nc3ccc(N4CCN(CC(=O)NCC5CC(Nc6nc(C7CC7)ccc6C(=O)Nc6cc(C)n(C)n6)C5)CC4)cn3)nc2n(C2CCCC2)c1=O (stereo not drawn) [CPD-213, 2-((3-((2-(4-(6-((6-acetyl-8-cyclopentyl-5-methyl-7-oxo-7,8-dihydropyrido[2,3-d]pyrimidin-2-yl)amino)pyridin-3-yl)piperazin-1-yl)acetamido)methyl)cyclobutyl)amino)-6-cyclopropyl-N-(1,5-dimethyl-1H-pyrazol-3-yl)nicotinamide]	30 to 50	50 to 80

Results, then the compound that gave them:

inhibition at 0.04 µM [%]	inhibition at 0.2 µM [%]	SMILES
< 30	< 30	CNc1ccc(C(=O)Nc2ccc(N(C)C)nn2)c(NC(=O)CN2CCN(c3ccc(Nc4ncc5c(C)c(C(C)=O)c(=O)n(C6CCCC6)c5n4)nc3)CC2)n1 [CPD-194, 2-(2-(4-(6-((6-acetyl-8-cyclopentyl-5-methyl-7-oxo-7,8-dihydropyrido[2,3-d]pyrimidin-2-yl)amino)pyridin-3-yl)piperazin-1-yl)acetamido)-N-(6-(dimethylamino)pyridazin-3-yl)-6-(methylamino)nicotinamide]
< 30	30 to 50	CNc1ccc(C(=O)Nc2cc(C)n(C)n2)c(NC2CC(NC(=O)CN3CCN(c4ccc(Nc5ncc6c(C)c(C(C)=O)c(=O)n(C7CCCC7)c6n5)nc4)CC3)C2)n1 (stereo not drawn) [CPD-197, 2-((3-(2-(4-(6-((6-acetyl-8-cyclopentyl-5-methyl-7-oxo-7,8-dihydropyrido[2,3-d]pyrimidin-2-yl)amino)pyridin-3-yl)piperazin-1-yl)acetamido)cyclobutyl)amino)-N-(1,5-dimethyl-1H-pyrazol-3-yl)-6-(methylamino)nicotinamide]
< 30	30 to 50	CNc1ccc(C(=O)Nc2cc(C)on2)c(NC2CC(NC(=O)CN3CCN(c4ccc(Nc5ncc6c(C)c(C(C)=O)c(=O)n(C7CCCC7)c6n5)nc4)CC3)C2)n1 (stereo not drawn) [CPD-198, 2-((3-(2-(4-(6-((6-acetyl-8-cyclopentyl-5-methyl-7-oxo-7,8-dihydropyrido[2,3-d]pyrimidin-2-yl)amino)pyridin-3-yl)piperazin-1-yl)acetamido)cyclobutyl)amino)-6-(methylamino)-N-(5-methylisoxazol-3-yl)nicotinamide]
30 to 50	50 to 80	CNc1ccc(C(=O)Nc2ccc(N(C)C)nn2)c(NC2CCN(C(=O)CN3CCN(c4ccc(Nc5ncc6c(C)c(C(C)=O)c(=O)n(C7CCCC7)c6n5)nc4)CC3)C2)n1 (stereo not drawn) [CPD-201, 2-((1-(2-(4-(6-((6-acetyl-8-cyclopentyl-5-methyl-7-oxo-7,8-dihydropyrido[2,3-d]pyrimidin-2-yl)amino)pyridin-3-yl)piperazin-1-yl)acetyl)pyrrolidin-3-yl)amino)-N-(6-(dimethylamino)pyridazin-3-yl)-6-(methylamino)nicotinamide]
< 30	50 to 80	CNc1ccc(C(=O)Nc2ccc(N(C)C)nn2)c(NC[C@H]2CC[C@H](CCC(=O)N3CCN(c4ccc(Nc5ncc6c(C)c(C(C)=O)c(=O)n(C7CCCC7)c6n5)nc4)CC3)CC2)n1 [CPD-204, 2-(((trans-4-(3-(4-(6-((6-acetyl-8-cyclopentyl-S-methyl-7-oxo-7,8-dihydropyrido[2,3-d]pyrimidin-2-yl)amino)pyridin-3-yl)piperazin-1-yl)-3-oxopropyl)cyclohexyl)methyl)amino)-N-(6-(dimethylamino)pyridazin-3-yl)-6-(methylamino)nicotinamide]
30 to 50	50 to 80	CC(=O)c1c(C)c2cnc(Nc3ccc(N4CCN(CC(=O)NC5CC6(C5)CC(Nc5nc(C)ccc5C(=O)Nc5cn(C)c(C7CC7)n5)C6)CC4)cn3)nc2n(C2CCCC2)c1=O (stereo not drawn) [CPD-207, 2-((6-(2-(4-(6-((6-acetyl-8-cyclopentyl-5-methyl-7-oxo-7,8-dihydropyrido[2,3-d]pyrimidin-2-yl)amino)pyridin-3-yl)piperazin-1-yl)acetamido)spiro[3.3]heptan-2-yl)amino)-N-(2-cyclopropyl-1-methyl-1H-imidazol-4-yl)-6-methylnicotinamide]
30 to 50	50 to 80	CC(=O)c1c(C)c2cnc(Nc3ccc(N4CCN(CC(=O)NCC5CC(Nc6nc(C(C)C)ccc6C(=O)Nc6cc(C)n(C)n6)C5)CC4)cn3)nc2n(C2CCCC2)c1=O (stereo not drawn) [CPD-212, 2-((3-((2-(4-(6-((6-acetyl-8-cyclopentyl-5-methyl-7-oxo-7,8-dihydropyrido[2,3-d]pyrimidin-2-yl)amino)pyridin-3-yl)piperazin-1-yl)acetamido)methyl)cyclobutyl)amino)-N-(1,5-dimethyl-1H-pyrazol-3-yl)-6-isopropylnicotinamide]
